The source of these data is patent US7038085B2, “Stereoisomers of p-hydroxy-milnacipran, and methods of use thereof” (Collegium Pharmaceutical, Inc., priority 2002, dated 2006).

SMILES strings stand for the structures.

One series concerns the target Norepinephrine Uptake (Homo sapiens, UniProt P23975). Kind of series: Inhibition of cellular Norepinephrine Uptake (cat. 302000). The format is cell-based. The following applies: for IC50: cellular uptake, FIG. 61. As for the experimental part:
(§1) The methods employed have been adapted from the scientific literature to maximize reliability and reproducibility. Reference standards were run as an integral part of each assay to ensure the validity of the results obtained. Assays were performed under the conditions described below. The literature reference(s) for each assay are are listed below.
(§2) Where presented, IC50 values were determined by a non-linear, least squares regression analysis using Data Analysis Toolbox™ (MDL Information Systems, San Leandro, Calif., USA). Where inhibition constants (Ki) are presented, the Ki values were calculated using the equation of Cheng and Prusoff (Cheng, Y., Prusoff, W. H., Biochem. Pharmacol. 22:3099–3108, 1973) using the observed IC50 of the tested compound, the concentration of radioligand employed in the assay, and the historical values for the KD of the ligand (obtained experimentally at MDS Pharma Sarvices.

Series [1] can be described thus: Cytotoxicity, fluorometric assay run with the uptake assays (cat. 302100, 364100). The format is cell-based. The following applies: at 10 μM. From the text: • 118090. Crespi, C. L., Miller, V. P and Penman, B. W. (1997) Microtiter plate assays for inhibition of human, drug-metabolizing cytochromes P450. Anal Biochem 248(1): 188–190. • Gentest Technical Bulletin (Version 4.2: Revised 27 Sep. 2000) A high throughput method for measuring cytochrome P450 inhibition. Gentest Technical Bulletin (Version 4.2) Revised 27 Sep. 2000). • 204410. Galli, A., DeFelice, L., Duke, B.-J., Moore, K. Blakely, R. (1995) Sodium dependent norepinephrine induced currents in norephinephrine transporter transfected HEK293 cells blocked by cocaine and antidepressants. J. Exp. Biol. 198:2197–2212. • 212610. Eggerickx, D., Raspe, E. Bertrand, D., Vassart, G., Parmentier, M. (1992) Molecular cloning, functional expression and pharmacological characterization of a human bradykinin B2 receptor gene. Biochem Biophys Res Commun 187 (3): 1306–1313. • 214510. Schoemaker, H. and Langer, S. Z. (1985) [3H]Diltiazem binding to calcium channel antagonist recognition sites in rat cerebral cortex. Eur. J. Pharmacol. 111:273–277. • 274020. […] J. Biol. Chem. 269(10):7124–7130. • 302000. Galli, A., DeFelice, L. Duke, B.-J., and Blakely, R. (1995) Sodium dependent norephinephrine-induced currents in norepinephrine-transporter-transfected HEK-293 cells blocked by cocaine and antidepressants. J. Exp. Biol. 198:2197–2212. • 302100. Page, B., Page, M. and Noel, C. (1993) A new fluorometric assay for cytotoxicity measurements in vitro. […] 3:473–476, 1993. • 364000. […] J. Biol. Chem. […]:7124–7130. • 364100. Page, B., Page, M. and Noel, C. (1993) A new fluorometric assay for cytotoxicity measurements in vitro. Int. J. Oncology 3:473–476, 1993.

The next series deals with other receptors. Kind of series: Radioligand binding assay panel, other receptors (FIGS. 32 and 33). The arrangement: species or system human, mouse, guinea pig, syrian hamster, rat. The following applies: radioligand binding assays at 10 μM. As for the experimental part: (§3) The methods employed in this study have been adapted from the scientific literature to maximize reliability and reproducibility. Reference standards were run as an integral part of each assay to ensure the validity of the results obtained. Assays were performed under conditions as described below. Literature reference(s) for each assay are tabulated below and hereby incorporated by reference.

The target of another series is Serotonin Uptake (Homo sapiens, UniProt P31645). The series is described as follows: Inhibition of cellular Serotonin Uptake (cat. 364000). The format is cell-based. The following applies: for IC50: cellular uptake, FIG. 61. As for the experimental part:
as §1, §2

For series [2], the target named is T1, Norepinephrine Transporter (NET) (Homo sapiens, UniProt P23975). The series is described as follows: Transporter, Norepinephrine (NET) radioligand binding (cat. 204410). The following applies: for Ki: human recombinant MDCK cells, [125I] RTI-55, Ki by Cheng and Prusoff, read-out: Ki, displacement of radioligand from Norepinephrine Transporter binding sites. As for the experimental part:
as §3
as §2, with “ToolboX™” for “Toolbox™”, “Prusoff(Cheng,” for “Prusoff (Cheng,”, “22:30993108,” for “22:3099–3108,”, “Kd” for “KD”, “Services). Where presented, the Hill coefficient (nH), defining the slope of the competitive binding curve, was calculated using Data Analysis Toolbox™. […] Where IC50, Ki, and/or nH data are presented without Standard Error of the Mean (SEM), data are insufficient to be quantitative, and the values presented (Ki, IC50, nH) should be interpreted with caution.” for “Sarvices.”
as §2

In series [3] the target is T2, Serotonin Transporter (SERT) (Homo sapiens, UniProt P31645). The series is described as follows: Transporter, Serotonin (5-Hydroxytryptamine) (SERT) radioligand binding (cat. 274020). To be noted: for Ki: human recombinant HEK-293 cells, [125I] RTI-55, Ki by Cheng and Prusoff, read-out: Ki, displacement of radioligand from Serotonin Transporter binding sites. As for the experimental part:
as §3
as §2, with “ToolboX™” for “Toolbox™”, “Prusoff(Cheng,” for “Prusoff (Cheng,”, “22:30993108,” for “22:3099–3108,”, “Kd” for “KD”, “Services). Where presented, the Hill coefficient (nH), defining the slope of the competitive binding curve, was calculated using Data Analysis Toolbox™. […] Where IC50, Ki, and/or nH data are presented without Standard Error of the Mean (SEM), data are insufficient to be quantitative, and the values presented (Ki, IC50, nH) should be interpreted with caution.” for “Sarvices.”
as §2

For the next series, the system named is beta adrenoceptors. To be noted: after chronic administration; Briley et al. 1996; cited from earlier work.
Series [4] has as its system alpha or beta adrenergic, muscarinic, histaminergic, and dopaminergic receptors. The following applies: cited from earlier work.
Another series deals with uptake of dopamine (Homo sapiens, UniProt Q01959). To be noted: cited from earlier work.
The subject of series [5] is norepinephrine (NE) and serotonin (5-HT) uptake. The following applies: Viazzo et al. 1996; Deprez et al. 1998; cited from earlier work.
Series [6] addresses T1, Norepinephrine Transporter (NET). To be noted: radioligand [125I] RTI-55; Human recombinant MDCK cells; historical value (*); cited from earlier work.
In series [7] the target is T2, Serotonin Transporter (SERT). The following applies: radioligand [125I] RTI-55; Human recombinant HEK-293 cells; historical value (*); cited from earlier work.

T1 sequence (P23975 whole entry): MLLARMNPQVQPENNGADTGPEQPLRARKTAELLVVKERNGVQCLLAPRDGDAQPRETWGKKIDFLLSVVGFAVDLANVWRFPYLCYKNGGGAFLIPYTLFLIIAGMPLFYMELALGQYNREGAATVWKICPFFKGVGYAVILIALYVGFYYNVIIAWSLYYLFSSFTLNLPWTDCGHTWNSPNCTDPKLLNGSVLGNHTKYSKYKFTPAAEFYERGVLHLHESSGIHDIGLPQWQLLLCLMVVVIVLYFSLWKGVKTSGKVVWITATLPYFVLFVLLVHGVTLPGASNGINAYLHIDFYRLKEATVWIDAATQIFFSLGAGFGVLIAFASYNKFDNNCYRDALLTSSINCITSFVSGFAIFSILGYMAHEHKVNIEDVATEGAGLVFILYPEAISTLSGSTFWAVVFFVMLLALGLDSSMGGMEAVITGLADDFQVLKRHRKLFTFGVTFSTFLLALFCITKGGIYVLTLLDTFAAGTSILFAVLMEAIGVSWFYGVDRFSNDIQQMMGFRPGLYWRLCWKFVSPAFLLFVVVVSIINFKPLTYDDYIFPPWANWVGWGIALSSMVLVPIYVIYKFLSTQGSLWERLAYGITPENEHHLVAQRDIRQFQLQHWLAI
Chain of Norepinephrine Uptake (P23975 whole entry): as above
Chain of Serotonin Uptake (P31645 whole entry): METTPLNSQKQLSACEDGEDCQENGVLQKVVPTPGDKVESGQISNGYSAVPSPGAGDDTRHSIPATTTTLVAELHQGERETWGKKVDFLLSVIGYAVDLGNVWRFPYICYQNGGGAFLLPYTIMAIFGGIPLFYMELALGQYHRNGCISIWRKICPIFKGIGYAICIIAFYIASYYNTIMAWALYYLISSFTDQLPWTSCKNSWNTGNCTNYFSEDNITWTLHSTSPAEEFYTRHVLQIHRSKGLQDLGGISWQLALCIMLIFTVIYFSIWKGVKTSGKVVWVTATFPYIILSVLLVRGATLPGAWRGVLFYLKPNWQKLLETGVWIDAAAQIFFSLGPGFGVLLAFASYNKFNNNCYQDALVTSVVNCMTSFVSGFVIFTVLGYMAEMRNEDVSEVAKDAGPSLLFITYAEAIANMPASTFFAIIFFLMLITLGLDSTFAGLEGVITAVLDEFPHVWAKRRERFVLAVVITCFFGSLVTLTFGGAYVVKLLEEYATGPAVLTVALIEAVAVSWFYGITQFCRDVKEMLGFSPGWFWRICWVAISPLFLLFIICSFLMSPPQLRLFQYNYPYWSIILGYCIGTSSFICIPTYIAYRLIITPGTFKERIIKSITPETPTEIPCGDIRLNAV
T2 sequence (P31645 whole entry): as above
Chain of uptake of dopamine (Q01959 whole entry): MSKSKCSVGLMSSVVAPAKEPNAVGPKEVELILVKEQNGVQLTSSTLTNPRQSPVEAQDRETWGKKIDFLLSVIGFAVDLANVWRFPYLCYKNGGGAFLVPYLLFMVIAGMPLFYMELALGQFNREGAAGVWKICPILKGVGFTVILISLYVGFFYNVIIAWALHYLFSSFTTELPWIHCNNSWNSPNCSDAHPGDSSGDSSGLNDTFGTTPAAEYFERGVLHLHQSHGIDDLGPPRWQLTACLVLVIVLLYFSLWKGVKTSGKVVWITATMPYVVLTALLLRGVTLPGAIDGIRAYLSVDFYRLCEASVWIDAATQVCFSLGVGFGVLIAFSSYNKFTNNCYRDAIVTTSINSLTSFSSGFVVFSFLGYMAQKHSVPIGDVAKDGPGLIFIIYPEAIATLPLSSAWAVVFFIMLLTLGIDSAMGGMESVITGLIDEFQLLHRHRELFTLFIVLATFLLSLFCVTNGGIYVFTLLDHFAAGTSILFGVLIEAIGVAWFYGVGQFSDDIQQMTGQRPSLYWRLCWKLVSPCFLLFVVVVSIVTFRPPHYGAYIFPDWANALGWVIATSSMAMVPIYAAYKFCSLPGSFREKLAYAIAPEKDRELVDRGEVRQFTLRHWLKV

The IC50 is the concentration that gives 50% inhibition. What is called Ki is a measure of affinity in units of concentration, obtained from inhibition or displacement. In the case of `CCN(CC)C(=O)C1(c2ccc(O)cc2)CC1CN` (racemic) [CS1814, racemic 2-Aminomethyl-1-(4-hydroxy-phenyl)-cyclopropanecarboxylic acid diethyl amide], at Norepinephrine Uptake, the “potency of inhibition of norepinephrine uptake compared to inhibition of serotonin uptake” value was “approximately equal potency”. Also, the IC50 against Norepinephrine Uptake was 0.0286 µM; against Serotonin Uptake, 0.0217 µM; in series [2] (radioligand binding, FIG. 59, read-out: IC50 for inhibition of norepinephrine transporter) it was 0.22 µM; in [3] (radioligand binding, FIG. 59, read-out: IC50 for inhibition of serotonin transporter), 0.0127 µM. Further, the cytotoxicity result in series [1] is “no cytotoxicity was observed”. Moreover, the “binding to other receptors” value in the series on other receptors was “generally does not bind well to other receptors”. For the same compound, the inhibition constant (Ki) is 0.218 µM in series [2] and 0.00673 µM in [3].
Turning to `CCN(CC)C(=O)[C@@]1(c2ccccc2)C[C@H]1CN` (racemic) [Milnacipran, milnacipran], in the series on beta adrenoceptors, the “effect on the number of beta adrenoceptors in rat cortex” value was “does not affect the number of beta adrenoceptors”. The “affinity for alpha or beta adrenergic, muscarinic, histaminergic, and dopaminergic receptors” value in [4] is “no affinity”. The “effect on the uptake of dopamine” value on uptake of dopamine is “does not affect the uptake of dopamine”.
As to `CCN(CC)C(=O)[C@@]1(c2ccc(O)cc2)C[C@H]1CN` [CS1713, 1S, 2R 2-Aminomethyl-1-(4-hydroxy-phenyl)-cyclopropanecarboxylic acid diethyl amide], at Norepinephrine Uptake, the “potency of inhibition of norepinephrine uptake compared to inhibition of serotonin uptake” value is reported as “approximately two-fold”. For the same compound, the IC50 against Norepinephrine Uptake was 0.0103 µM; at Serotonin Uptake, 0.022 µM. Besides, the cytotoxicity entry in [1] is recorded as “no cytotoxicity was observed”. Besides, the Ki in series [2] was 0.112 µM; in series [3], 0.00388 µM.
As to `CCN(CC)C(=O)[C@]1(c2ccc(O)cc2)C[C@@H]1CN.Cl` [CS1714, 1R, 2S 2-Aminomethyl-1-(4-hydroxy-phenyl)-cyclopropanecarboxylic acid diethyl amide], the half-inhibitory concentration (IC50) on Norepinephrine Uptake amounted to 0.0885 µM; on Serotonin Uptake, 0.0403 µM. Further, in [1], the cytotoxicity result is “no cytotoxicity was observed”. Besides, on Serotonin Uptake, the “potency of inhibition of serotonin uptake compared to inhibition of norepinephrine uptake” value was “approximately two-fold”. In addition, the figures for the inhibition constant Ki in series [2] and in series [3] were 1.68 µM and 0.00815 µM, respectively.
In the case of `CCN(CC)C(=O)[C@@]1(c2ccccc2)C[C@H]1CN` [F2695, (+)-1S,2R-milnacipran], in series [5], the “activity in inhibiting norepinephrine and serotonin reuptake compared with the racemic mixture” value is “roughly twice”.
For the compound `CCN(CC)C(=O)[C@]1(c2ccccc2)C[C@@H]1CN` [F2696, (−)-1R,2S-milnacipran], in series [5], the “activity in inhibiting norepinephrine and serotonin reuptake compared with the racemic mixture” value is given as “much less potent”.
In general, Kd refers to the concentration at which binding is half-saturated. Regarding `COC(=O)[C@H]1[C@@H](c2ccc(I)cc2)C[C@@H]2CC[C@H]1N2C` [[^125I] RTI-55], the figures for the Kd in series [6] and in series [7] were 0.024 µM and 0.00017 µM, respectively.
